In patent US12662489B2 (Sitryx Therapeutics Limited, priority 2023, dated 2026):

What was measured:
[1] = target: T1, MTHFD1 recombinant human enzyme (Homo sapiens, UniProt P11586); experiment: MTHFD1 inhibition assay (NAD(P)H-Glo luminescence); details: MTHFD1 IC50, recombinant human enzyme 200 nM, NADP, band
T1 sequence (P11586 2-291 limits assumed): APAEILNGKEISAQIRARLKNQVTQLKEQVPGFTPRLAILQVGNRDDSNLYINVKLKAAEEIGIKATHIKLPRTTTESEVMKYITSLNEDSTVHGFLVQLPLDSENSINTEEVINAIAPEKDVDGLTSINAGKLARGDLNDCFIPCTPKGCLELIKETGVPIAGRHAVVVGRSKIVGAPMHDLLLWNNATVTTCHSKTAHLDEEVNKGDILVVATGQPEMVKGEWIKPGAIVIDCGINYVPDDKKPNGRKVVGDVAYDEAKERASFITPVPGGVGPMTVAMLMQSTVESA

[2] = target: T2, MTHFD2 recombinant human enzyme (Homo sapiens, UniProt P13995); experiment: MTHFD2 inhibition assay (NAD(P)H-Glo luminescence); details: for MTHFD1/MTHFD2 IC50 ratio: selectivity of MTHFD2 inhibition over MTHFD1, band
T2 sequence (P13995 36-350): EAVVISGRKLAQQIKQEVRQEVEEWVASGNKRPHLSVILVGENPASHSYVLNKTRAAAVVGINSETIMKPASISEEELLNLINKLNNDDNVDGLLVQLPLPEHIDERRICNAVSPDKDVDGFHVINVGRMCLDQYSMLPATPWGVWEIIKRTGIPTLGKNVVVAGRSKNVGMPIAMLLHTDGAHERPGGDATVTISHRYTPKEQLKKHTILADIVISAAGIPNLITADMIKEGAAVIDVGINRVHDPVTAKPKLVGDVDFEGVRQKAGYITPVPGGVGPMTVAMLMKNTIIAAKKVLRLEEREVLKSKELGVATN

Row | IC50 [1] | IC50 [2] | MTHFD1/MTHFD2 IC50 ratio [2] | SMILES
1 | 0.01 to 0.1 µM | 0.01 to 0.1 µM | F (<3) | COC[C@H]1CN(c2cc(C)c3c4c(c(=O)oc3c2C)CN(C(=O)c2ccc(C(=O)NS(=O)(=O)N3CC5CC5C3)c(OC3CC3)c2F)CC4)CCN1C (stereo partly drawn) [Example 207, N-((3-azabicyclo[3.1.0]hexan-3-yl)sulfonyl)-2-cyclopropoxy-3-fluoro-4-(8-((R)-3-(methoxymethyl)-4-methylpiperazin-1-yl)-7,10-dimethyl-5-oxo-1,3,4,5-tetrahydro-2H-chromeno[3,4-c]pyridine-3-carbonyl)benzamide]
2 | 0.001 to 0.01 µM | 0.001 to 0.01 µM | F (<3) | COC[C@H]1CN(c2ccc3c4c(c(=O)oc3c2C)CN(C(=O)c2ccc(C(=O)NS(=O)(=O)N(C)C(C)C)c(O[C@@H]3C[C@@H]5C[C@@H]5C3)c2F)CC4)CCN1C [Example 64, 2-(((1R,3r,5S)-bicyclo[3.1.0]hexan-3-yl)oxy)-3-fluoro-N-(N-isopropyl-N-methylsulfamoyl)-4-(8-((R)-3-(methoxymethyl)-4-methylpiperazin-1-yl)-7-methyl-5-oxo-1,3,4,5-tetrahydro-2H-chromeno[3,4-c]pyridine-3-carbonyl)benzamide]
3 | 0.1 to 1 µM | 0.01 to 0.1 µM | J (>30) | COC[C@H]1CN(c2cc(C)c3c4c(c(=O)oc3c2C)CN(C(=O)c2cc(N(C)C)c(C(=O)NS(=O)(=O)N3CCC(OC)CC3)cc2F)CC4)CCN1C [Example 289, (R)-2-(dimethylamino)-5-fluoro-4-(8-(3-(methoxymethyl)-4-methylpiperazin-1-yl)-7,10-dimethyl-5-oxo-1,3,4,5-tetrahydro-2H-chromeno[3,4-c]pyridine-3-carbonyl)-N-((4-methoxypiperidin-1-yl)sulfonyl)benzamide]
4 | 0.001 to 0.01 µM | 0.001 to 0.01 µM | – | COC[C@H]1CN(c2cc(C)c3c4c(c(=O)oc3c2C)CN(C(=O)c2ccc(C(=O)NS(=O)(=O)N(C)C)c(N3CC5CC5C3)c2F)CC4)CCN1C (stereo partly drawn) [Example 72, 2-(3-azabicyclo[3.1.0]hexan-3-yl)-N-(N,N-dimethylsulfamoyl)-3-fluoro-4-(8-((R)-3-(methoxymethyl)-4-methylpiperazin-1-yl)-7,10-dimethyl-5-oxo-1,3,4,5-tetrahydro-2H-chromeno[3,4-c]pyridine-3-carbonyl)benzamide]
5 | 0.001 to 0.01 µM | 0.001 to 0.01 µM | F (<3) | COC[C@H]1CN(c2cc(C)c3c4c(c(=O)oc3c2C)CN(C(=O)c2ccc(C(=O)NS(=O)(=O)N(C)C)c(O[C@H]3C[C@@H]5C[C@@H]5C3)c2F)CC4)CCN1C [Example 67, 2-(((1R,3s,5S)-bicyclo[3.1.0]hexan-3-yl)oxy)-N-(N,N-dimethylsulfamoyl)-3-fluoro-4-(8-((R)-3-(methoxymethyl)-4-methylpiperazin-1-yl)-7,10-dimethyl-5-oxo-1,3,4,5-tetrahydro-2H-chromeno[3,4-c]pyridine-3-carbonyl)benzamide]
6 | 0.01 to 0.1 µM | 0.001 to 0.01 µM | G (^ 3 to 9.0) | COC[C@H]1CN(c2cc(C)c3c4c(c(=O)oc3c2C)CN(C(=O)c2ccc(C(=O)NS(=O)(=O)N(C)C)c(N(C)C3CC3)c2)CC4)CCN1C [Example 84, (R)-2-(cyclopropyl(methyl)amino)-N-(N,N-dimethylsulfamoyl)-4-(8-(3-(methoxymethyl)-4-methylpiperazin-1-yl)-7,10-dimethyl-5-oxo-1,3,4,5-tetrahydro-2H-chromeno[3,4-c]pyridine-3-carbonyl)benzamide]

More lines, now with the values behind:

Row | SMILES | IC50 [1] | IC50 [2] | MTHFD1/MTHFD2 IC50 ratio [2]
7 | COC[C@H]1CN(c2ccc3c4c(c(=O)oc3c2C)CN(C(=O)c2cc(N(C)C)c(C(=O)NS(=O)(=O)N3C5CCC3CC5)cc2F)CC4)CCN1C [Example 188, (R)-N-((7-azabicyclo[2.2.1]heptan-7-yl)sulfonyl)-2-(dimethylamino)-5-fluoro-4-(8-(3-(methoxymethyl)-4-methylpiperazin-1-yl)-7-methyl-5-oxo-1,3,4,5-tetrahydro-2H-chromeno[3,4-c]pyridine-3-carbonyl)benzamide] | 1 to 5 µM | 0.01 to 0.1 µM | H (>9.0 to 30)
8 | COC[C@H]1CN(c2cc(C)c3c4c(c(=O)oc3c2C)CN(C(=O)c2cc(OC3CCCC3)c(C(=O)NS(=O)(=O)N(C)C)c(C(F)(F)F)c2)CC4)CCN1C [Example 153, (R)-2-(cyclopentyloxy)-N-(N,N-dimethylsulfamoyl)-4-(8-(3-(methoxymethyl)-4-methylpiperazin-1-yl)-7,10-dimethyl-5-oxo-1,3,4,5-tetrahydro-2H-chromeno[3,4-c]pyridine-3-carbonyl)-6-(trifluoromethyl)benzamide] | 1 to 5 µM | 0.01 to 0.1 µM | H (>9.0 to 30)
9 | COC[C@H]1CN(c2cc(C)c3c4c(c(=O)oc3c2C)CN(C(=O)c2ccc(C(=O)NS(=O)(=O)C3(C)CC3)c(N(C)C)c2)CC4)CCN1C [Example 79, (R)-2-(dimethylamino)-4-(8-(3-(methoxymethyl)-4-methylpiperazin-1-yl)-7,10-dimethyl-5-oxo-1,3,4,5-tetrahydro-2H-chromeno[3,4-c]pyridine-3-carbonyl)-N-((1-methylcyclopropyl)sulfonyl)benzamide] | 0.01 to 0.1 µM | 0.001 to 0.01 µM | H (>9.0 to 30)
10 | COC[C@H]1CN(c2cc(C)c3c4c(c(=O)oc3c2C)CN(C(=O)c2ccc(C(=O)NS(=O)(=O)N3C5CCC3CC5)c(OC3CC3)c2F)CC4)CCN1C [Example 213, (R)-N-((7-azabicyclo[2.2.1]heptan-7-yl)sulfonyl)-2-cyclopropoxy-3-fluoro-4-(8-(3-(methoxymethyl)-4-methylpiperazin-1-yl)-7,10-dimethyl-5-oxo-1,3,4,5-tetrahydro-2H-chromeno[3,4-c]pyridine-3-carbonyl)benzamide] | 0.01 to 0.1 µM | 0.001 to 0.01 µM | G (^ 3 to 9.0)
11 | COC[C@H]1CN(c2ccc3c4c(c(=O)oc3c2C)CN(C(=O)c2cc(Cl)c(C(=O)NS(=O)(=O)C3(C)CC3)c(N3C5CCC3CC5)c2)CC4)CCN1C [Example 40, (R)-2-(7-azabicyclo[2.2.1]heptan-7-yl)-6-chloro-4-(8-(3-(methoxymethyl)-4-methylpiperazin-1-yl)-7-methyl-5-oxo-1,3,4,5-tetrahydro-2H-chromeno[3,4-c]pyridine-3-carbonyl)-N-((1-methylcyclopropyl)sulfonyl)benzamide] | 0.01 to 0.1 µM | 0.001 to 0.01 µM | H (>9.0 to 30)
12 | COC[C@H]1CN(c2cc(F)c3c4c(c(=O)oc3c2C)CN(C(=O)c2cc(OC)c(C(=O)NS(=O)(=O)N3C5CCC3CC5)cc2F)CC4)CCN1C [Example 305, (R)-N-((7-azabicyclo[2.2.1]heptan-7-yl)sulfonyl)-5-fluoro-4-(10-fluoro-8-(3-(methoxymethyl)-4-methylpiperazin-1-yl)-7-methyl-5-oxo-1,3,4,5-tetrahydro-2H-chromeno[3,4-c]pyridine-3-carbonyl)-2-methoxybenzamide] | 1 to 5 µM | 0.01 to 0.1 µM | J (>30)
13 | COC[C@H]1CN(c2cc(C)c3c4c(c(=O)oc3c2C)CN(C(=O)c2cc(C(=O)NS(=O)(=O)N3CCCC3)c(OC3CCC3)cc2F)CC4)CCN1C [Example 165, (R)-2-cyclobutoxy-4-fluoro-5-(8-(3-(methoxymethyl)-4-methylpiperazin-1-yl)-7,10-dimethyl-5-oxo-1,3,4,5-tetrahydro-2H-chromeno[3,4-c]pyridine-3-carbonyl)-N-(pyrrolidin-1-ylsulfonyl)benzamide] | > 5 µM | 0.1 to 1 µM | H (>9.0 to 30)
14 | COC[C@H]1CN(c2ccc3c4c(c(=O)oc3c2Cl)CN(C(=O)c2ccc(C(=O)NS(=O)(=O)N3CCCC3)c(OC3CCC3)c2)CC4)CCN1C [Example 14, (R)-4-(7-chloro-8-(3-(methoxymethyl)-4-methylpiperazin-1-yl)-5-oxo-1,3,4,5-tetrahydro-2H-chromeno[3,4-c]pyridine-3-carbonyl)-2-cyclobutoxy-N-(pyrrolidin-1-ylsulfonyl)benzamide] | 0.01 to 0.1 µM | 0.01 to 0.1 µM | F (<3)
15 | COC[C@H]1CN(c2ccc3c4c(c(=O)oc3c2C)CN(C(=O)c2cc(N3CCC3)c(C(=O)NS(=O)(=O)N3CCCC3)cc2F)CC4)CCN1C [Example 194, (R)-2-(azetidin-1-yl)-5-fluoro-4-(8-(3-(methoxymethyl)-4-methylpiperazin-1-yl)-7-methyl-5-oxo-1,3,4,5-tetrahydro-2H-chromeno[3,4-c]pyridine-3-carbonyl)-N-(pyrrolidin-1-ylsulfonyl)benzamide] | 0.1 to 1 µM | 0.01 to 0.1 µM | G (^ 3 to 9.0)
16 | COC[C@H]1CN(c2cc(C)c3c4c(c(=O)oc3c2C)CN(C(=O)c2ccc(OC3CCC3)c(C(=O)NS(=O)(=O)N3CCCC3)c2)CC4)CCN1C [Example 163, (R)-2-cyclobutoxy-5-(8-(3-(methoxymethyl)-4-methylpiperazin-1-yl)-7,10-dimethyl-5-oxo-1,3,4,5-tetrahydro-2H-chromeno[3,4-c]pyridine-3-carbonyl)-N-(pyrrolidin-1-ylsulfonyl)benzamide] | > 5 µM | 0.1 to 1 µM | H (>9.0 to 30)
